# System: HUVECs
# Assay: Vascular barrier destruction in HUVECs under LPS stimulation (FIG. 4G)
# Format: cell-based
smiles,measurement,value
CCN(CC)Cc1ccc(C(=O)N(CCc2ccccc2OC)[C@@H]2CCNC2)cc1 [PF-429242],vascular barrier destruction,inhibited vascular bather destruction
